Measurements from article PMC10755728, “Inhibitors of the Elastase LasB for the Treatment of Pseudomonas aeruginosa Lung Infections” (ACS Central Science, 2023).
Like-named read-outs stand apart in the source and are kept apart here.

Key:
[1] = target: T1, LasB (Pseudomonas aeruginosa, UniProt Q02RJ6); experiment: biochemical; type: biochemical; conditions: for inhibition at 100 µM: read-out: % inh LasB @100 µM
T1 construct: made in house

[2] = target: ColH-PD (Hathewaya histolytica, UniProt Q46085); experiment: biochemical; type: biochemical, Clostridium histolyticum
[3] = system: Galleria mellonella larvae infected with wt PA14; experiment: G. mellonella infection model
[4] = FRET-based assay, read-out: LasB IC50

T1 sequence (Q02RJ6 198-498): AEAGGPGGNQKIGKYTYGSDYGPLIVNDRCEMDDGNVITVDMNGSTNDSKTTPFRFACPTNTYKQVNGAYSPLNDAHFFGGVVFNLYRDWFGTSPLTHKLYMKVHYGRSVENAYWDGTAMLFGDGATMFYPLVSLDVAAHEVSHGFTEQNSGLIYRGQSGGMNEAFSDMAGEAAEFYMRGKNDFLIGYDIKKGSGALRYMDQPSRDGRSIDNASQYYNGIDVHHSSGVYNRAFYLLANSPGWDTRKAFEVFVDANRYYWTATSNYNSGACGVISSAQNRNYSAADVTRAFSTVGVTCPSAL
Chain of ColH-PD (Q46085 331-721 limits assumed): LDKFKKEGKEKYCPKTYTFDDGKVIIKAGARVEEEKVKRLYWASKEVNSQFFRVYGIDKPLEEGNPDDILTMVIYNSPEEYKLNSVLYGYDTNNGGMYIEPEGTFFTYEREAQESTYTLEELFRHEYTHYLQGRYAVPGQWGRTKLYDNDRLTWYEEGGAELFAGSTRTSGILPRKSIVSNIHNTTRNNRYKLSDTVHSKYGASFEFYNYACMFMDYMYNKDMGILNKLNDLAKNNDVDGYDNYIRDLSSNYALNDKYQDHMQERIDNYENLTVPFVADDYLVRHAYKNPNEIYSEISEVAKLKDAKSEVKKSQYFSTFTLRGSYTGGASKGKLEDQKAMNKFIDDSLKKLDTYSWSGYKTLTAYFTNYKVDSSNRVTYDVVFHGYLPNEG

| SMILES | inhibition at 100 µM [1] | IC50 [1, 4] | also measured |
| --- | --- | --- | --- |
| CCCC(C(=O)Nc1ccc(C(C)=O)cc1)P(=O)(O)O (centres unmarked) [Compound 4ad] | – | – | IC50 ([1]; LasB IC50, FRET-based assay): 0.87 ± 0.03 µM |
| CCCC(C(=O)Nc1ccc(OC)cc1)P(=O)(O)O (centres unmarked) [Compound 4ab] | – | – | IC50 ([1]; LasB IC50, FRET-based assay): 1.11 µM |
| CC(C)CC(C(=O)Nc1ccc(C(N)=O)nc1)P(=O)(O)O (centres unmarked) [Compound 4r] | – | – | IC50 ([1]; LasB IC50, FRET-based assay): 0.22 ± 0.02 µM |
| Cc1ccc(NC(=O)C(CC(C)C)c2nn[nH]n2)cc1 (centres unmarked) [Compound 3j] | < 10% | – | – |
| Cc1ccc(NC(=O)C(Cc2ccccc2)P(=O)(O)O)cc1 (centres unmarked) [Compound 4x] | – | 0.137 ± 0.033 µM | – |
| CCOC(=O)C(CC(C)C)C(=O)Nc1ccc(C)cc1 (centres unmarked) [Compound 3d] | < 10% | – | – |
| CC(=O)c1ccc(NC(=O)C(CC(C)C)P(=O)(O)O)cc1 (centres unmarked) [Compound 4g] | – | 0.0404 ± 0.0116 µM | % inhibition ColH-PD @1 µM [2]: 65%; Ki [2]: 0.32 ± 0.07 µM; fold higher potency against ColH compared to 2 [2]: 20 fold |
| O=C(Nc1ccc(C(F)(F)F)cc1)C(Cc1ccccc1)P(=O)(O)O (centres unmarked) [Compound 4y] | – | 0.1015 ± 0.0009 µM | – |
| Cc1ccc(NC(=O)[C@@H](N)CC(C)C)cc1 [Compound 3b] | < 10% | – | – |
| Cc1ccc(NC(=O)C(CC(C)C)n2ccnc2)cc1 (centres unmarked) [Compound 3k] | 14 ± 4% | – | – |
| Cc1ccc(NC(=O)C(CC2CCCCC2)P(=O)(O)O)cc1 (centres unmarked) [Compound 4z] | – | 2.03 µM | – |
| COc1ccc(NC(=O)C(CC(C)C)P(=O)(O)O)cc1 (centres unmarked) [Compound 4f] | – | 0.0518 ± 0.0104 µM | inhibition at 1 µM ([2]; read-out: % inhibition ColH-PD @1 µM): < 10% |
| CC(C)CC(C(=O)Nc1ccc2c(c1)CCC2)P(=O)(O)O (centres unmarked) [Compound 4o] | – | 0.0443 ± 0.0045 µM | – |
| Cc1ccc(NC(=O)[C@H](CC(C)C)NC(=O)OC(C)(C)C)cc1 [Compound 3a] | < 10% | – | – |
| NC[C@H]1O[C@H](O[C@H]2[C@H](O)[C@@H](O[C@H]3O[C@H](CO)[C@@H](O)[C@H](N)[C@H]3O)[C@H](N)C[C@@H]2N)[C@H](N)C[C@@H]1O [tobramycin, reference compound] | – | – | survival of larvae infected with wt PA14 ([3]; 1 nmol 4b, 10.7 nmol tobramycin, or both, 17% in the wild type): 23%; survival in the PBS treated groups (not infected) ([3]; PBS with 4b, tobramycin or combination of both): 100% |
